Series [1] in a line: in vitro. Particulars: chlorocebus sabaeus, Vero E6 (Vero C1008) cells.
Series [2] has as its system SARS-CoV-2. Kind of series: microbe, parasite or virus in culture. Particulars: Severe acute respiratory syndrome coronavirus 2, Vero C1008, 48 h.
In series [3] the test system is SARS-CoV-2. As to the kind of experiment: microbe, parasite or virus in culture. Particulars: Severe acute respiratory syndrome coronavirus 2, Vero C1008, 48 h. It is filed as functional, organism-based, Chlorocebus sabaeus, Vero C1008.

The CC50 is the concentration that lowers cell viability or growth by half. Read a high CC50 as lower toxicity to the cells. For the molecule `COc1ccccc1OCCNCC(O)COc1cccc2[nH]c3ccccc3c12` (centres undefined) [CARVEDILOL], the CC50 at 48 h in series [1] (CC50) and in series [1] (pCC50) was 17 µM throughout. In addition, the IC50 in series [2] is 15.5 µM; in series [2] (read-out: pIC50 (converted)) it was 15.5 µM; in series [3] (read-out: IC50), 10 µM; in series [3] (read-out: pIC50 (converted)) it was 10 µM.
`CN(C)S(=O)(=O)c1ccc2c(c1)N(CCCN1CCC(CCO)CC1)c1ccccc1S2` [PIPOTIAZINE] had a CC50 at 48 h in series [1] (pCC50) of 7.24 µM. Also, the IC50 in series [2] was 13.8 µM; in series [2] (read-out: pIC50 (converted)), 13.8 µM; in series [3] (read-out: IC50) it was more than 100 µM; in series [3] (read-out: pIC50 (converted)), more than 100 µM.
Turning to `Cc1nc2ccccn2c(=O)c1CCN1CCC(=C(c2ccc(F)cc2)c2ccc(F)cc2)CC1` [SEGANSERIN], the half-maximal cytotoxic concentration (CC50) at 48 h in series [1] (CC50) and in series [1] (pCC50) was 10.2 µM throughout. Further, the IC50 in series [2] was 7.59 µM; in series [2] (read-out: pIC50 (converted)) it was 7.59 µM; in series [3] (read-out: IC50), more than 100 µM; in series [3] (read-out: pIC50 (converted)) it was more than 100 µM.
For the molecule `COc1cc2c(Oc3ccc4[nH]c(C)cc4c3F)ccnc2cc1OCC1(N)CC1` [CATEQUENTINIB], the CC50 at 48 h in series [1] (CC50) and in series [1] (pCC50) was 5.25 µM throughout. In addition, the IC50 in series [2], in series [2] (read-out: pIC50 (converted)), in series [3] (read-out: IC50) and in series [3] (read-out: pIC50 (converted)) was more than 100 µM throughout.
Take `C[C@H]1[C@H]2CC[C@H]3[C@@H]4CC=C5C[C@@H](N(C)C)CC[C@]5(C)[C@H]4CC[C@]23CN1C` [CONESSINE]: the CC50 at 48 h in series [1] (CC50) and in series [1] (pCC50) was 34.7 µM throughout. Further, the IC50 in series [2] was 12 µM; in series [2] (read-out: pIC50 (converted)), 12 µM; in series [3] (read-out: IC50) it was more than 25.1 µM; in series [3] (read-out: pIC50 (converted)), more than 25.1 µM.
`CN1CCC(COc2cnc(-c3cccc(Cn4nc(-c5cccc(C#N)c5)ccc4=O)c3)nc2)CC1` [TEPOTINIB]: the CC50 at 48 h in series [1] (CC50) and in series [1] (pCC50) was 5.75 µM in each case. The IC50 in series [2], in series [2] (read-out: pIC50 (converted)), in series [3] (read-out: IC50) and in series [3] (read-out: pIC50 (converted)) was more than 100 µM in each case.
For `O=c1[nH]c2ccccc2n1CCCN1CCN(C(c2ccccc2)c2ccccc2)CC1` [OXATOMIDE], the cytotoxic concentration (CC50) at 48 h in series [1] (CC50) and in series [1] (pCC50) was approximately 12.6 µM in each case. Moreover, the IC50 in series [2], in series [2] (read-out: pIC50 (converted)), in series [3] (read-out: IC50) and in series [3] (read-out: pIC50 (converted)) was more than 100 µM each time.
For the molecule `CCCCN(CCCC)CCCOc1ccc(C(=O)c2c(CC)cc3ccccn23)cc1` [BUTOPROZINE], the CC50 at 48 h in series [1] (CC50) and in series [1] (pCC50) was 6.61 µM each time. In addition, the IC50 in series [2], in series [2] (read-out: pIC50 (converted)), in series [3] (read-out: IC50) and in series [3] (read-out: pIC50 (converted)) was more than 100 µM in each case.
Turning to `Cc1nc(Nc2ccc(F)cc2)nc(N2CCc3ccccc3C2C)c1C` (centres undefined) [REVAPRAZAN], the 50% cytotoxic concentration (CC50) at 48 h in series [1] (CC50) and in series [1] (pCC50) was 11.5 µM each time. Besides, the IC50 was more than 100 µM in series [2], more than 100 µM in series [2] (read-out: pIC50 (converted)), 10.5 µM in series [3] (read-out: IC50) and 10.5 µM in series [3] (read-out: pIC50 (converted)).
`COc1ccc2cc1Oc1ccc(cc1)C[C@H]1c3cc(c(OC)cc3CCN1C)Oc1c(OC)c(OC)cc3c1[C@H](C2)N(C)CC3` [FANCHININ]: the CC50 at 48 h in series [1] (CC50) was 5.17 µM; in series [1] (pCC50), 5.13 µM. In addition, the IC50 in series [2] was 3.98 µM; in series [2] (read-out: pIC50 (converted)), 3.98 µM; in series [3] (read-out: IC50) it was more than 50.1 µM; in series [3] (read-out: pIC50 (converted)), more than 50.1 µM.
Consider `Nc1nc2nn[nH]c2c(=O)[nH]1` [8-AZAGUANINE], for which the half-maximal cytotoxic concentration (CC50) at 48 h is 23.7 µM in series [1] (CC50) and 23.4 µM in series [1] (pCC50). The IC50 in series [2], in series [2] (read-out: pIC50 (converted)), in series [3] (read-out: IC50) and in series [3] (read-out: pIC50 (converted)) was more than 50.1 µM each time.
With `COc1cc2c3cc1Oc1cc(ccc1O)C[C@@H]1c4c(cc(OC)c(O)c4Oc4ccc(cc4)C[C@H]3N(C)CC2)CCN1C`, the 50% cytotoxic concentration (CC50) at 48 h in series [1] (CC50) and in series [1] (pCC50) was 11.5 µM throughout. For the same molecule, the IC50 in series [2] is more than 10 µM; in series [2] (read-out: pIC50 (converted)), more than 10 µM; in series [3] (read-out: IC50), approximately 5.37 µM; in series [3] (read-out: pIC50 (converted)) it was approximately 5.37 µM.
With `CN1CCCC(CC2c3ccccc3Sc3ccccc32)C1` (centres undefined) [METHIXENE], the CC50 at 48 h in series [1] (CC50) is 10.1 µM; in series [1] (pCC50) it was 10 µM. The IC50 is 9.55 µM in series [2], 9.55 µM in series [2] (read-out: pIC50 (converted)), more than 100 µM in series [3] (read-out: IC50) and more than 100 µM in series [3] (read-out: pIC50 (converted)).
As for `COc1cccc2c1C(=O)c1c(O)c3c(c(O)c1C2=O)C[C@@](O)(C(=O)CO)C[C@@H]3O[C@H]1C[C@H](N)[C@H](O)[C@H](C)O1` [DOXORUBICIN], the 50% cytotoxic concentration (CC50) at 48 h in series [1] (CC50) and in series [1] (pCC50) was 64.6 µM each time. In addition, the IC50 in series [2] was 8.04 µM; in series [2] (read-out: pIC50 (converted)), 7.94 µM; in series [3] (read-out: IC50) it was approximately 33.1 µM; in series [3] (read-out: pIC50 (converted)), approximately 33.1 µM.
In the case of `Cc1ccc(CCCO)c(NCc2ccc3nc(NCCCN4CCOCC4)n(Cc4nc(C)ccc4O)c3c2)c1`, the CC50 at 48 h in series [1] (CC50) and in series [1] (pCC50) was 9.33 µM in each case. Further, the IC50 in series [2], in series [2] (read-out: pIC50 (converted)), in series [3] (read-out: IC50) and in series [3] (read-out: pIC50 (converted)) was more than 20 µM throughout.
